Patent publication US20100160369A1, “S1P1 Agonists and Methods of Making And Using” (EXELIXIS, INC., priority 2008, published 2010)

What was measured:
S1P1 [1] = biological target: T1, S1P1 (Homo sapiens, UniProt P21453); experiment: CNG cAMP Assay (Assay 1); assay type: cell-based; set-up: host or cells: HEK293 cells expressing the CNG channel; conditions: read-out: Assay 1 EC50
Summary of the method: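 HEK293 cells expressing CNG channel and S1P1, membrane-potential dye loaded; compounds (top 10 μM, 10-point 3-fold, 1.8% DMSO) added with 25 μM Ro 20-1724, 500 nM NECA and 10 nM S1P for 90 min. T90/T0 fluorescence (Ex 350/Em 590 nm) normalised to NECA-alone vs DMSO; EC50 fitted.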
Target sequence in this assay (P21453 whole entry): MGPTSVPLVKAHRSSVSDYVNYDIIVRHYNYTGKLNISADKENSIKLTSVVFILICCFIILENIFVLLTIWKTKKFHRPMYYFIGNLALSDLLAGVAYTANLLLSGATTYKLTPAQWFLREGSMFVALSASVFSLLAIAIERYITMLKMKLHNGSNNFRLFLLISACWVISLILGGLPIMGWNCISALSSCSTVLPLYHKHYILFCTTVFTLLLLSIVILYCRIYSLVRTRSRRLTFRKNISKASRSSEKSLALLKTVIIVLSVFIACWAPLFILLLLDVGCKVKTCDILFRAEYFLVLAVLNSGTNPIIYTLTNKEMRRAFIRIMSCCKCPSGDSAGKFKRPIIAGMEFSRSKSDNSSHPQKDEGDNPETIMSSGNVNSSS

S1P1 [2] = biological target: T1, S1P1; experiment: Tango β-arrestin Recruitment Assay in HEK293 cells (Assay 2a); assay type: cell-based; set-up: linker with TEV protease (N1a) cleavage site (C); host or cells: HEK293, transiently transfected
Description: For the Tango™ β-arrestin recruitment assay, the cytoplasmic C-terminus of S1P1 is tethered to the tTA transcriptional activator with a linker that contains a cleavage site for the N1a protease from tobacco etch virus (TEV protease). The C-terminus of the human β-arrestin2 protein is fused to TEV protease. Binding of an agonist recruits the β-arrestin-TEV fusion protein to the receptor resulting in cleavage of the linker and release of tTA to enter the nucleus and subsequently activate a tTA-dependent luciferase reporter gene.
Frozen HEK293 cells transiently transfected with receptor cDNAs for S1P1 (Invitrogen) were thawed and suspended in 10 mL of Pro293a-CDM culture medium (Invitrogen) supplemented with 4 mM L-Glutamine (Invitrogen), 1× Pen/Strep (100 units/mL penicillin and 100 μg/mL streptomycin, Invitrogen) and 0.1% fatty acid free BSA (Sigma-Aldrich). Cells were added to the wells of a 384-well white opaque bottom assay plate (PerkinElmer) at 3,000-6,000 cells per well and the plate was incubated for approximately 4 h in a 37° C. incubator. Test compounds were tested at maximum concentrations of 10 μM for the agonist assays. Compounds were diluted in DMSO (10 concentration points, 3-fold each) and added to the assay plate at a 1% final DMSO concentration. For each compound, there were duplicate assay plates and each assay plate had duplicate wells per concentration point. The plate was incubated at 37° C. for 30 min. The efficacy control was 5 μM S1P (Avanti). Following agonist addition, the assay plates were incubated in a 37° C. incubator for 16-18 h. Luciferase assay reagent was added and luminescence measured in an EnVision plate reader (PerkinElmer). To determine agonist activity, percent activity was calculated as [(test compound−background)/(positive control−background)* 100], where background is the luminescence of the DMSO alone control and the positive control is the luminescence from cells incubated with the efficacy control 5 μM S1P. The percent activities were plotted against compound concentration to determine EC50 using XLFit (IDBS).
Assay 1 is the CNG cAMP Assay as described in Biological Example 1. Assay 2a and 2b are the Tango™ β-arrestin Recruitment Assay in HEK293 and U2OS cells, respectively, as described in Biological Example 2. Assay 3a is the hS1P1R GTPγS Binding Assay as described in Biological Example 3. Assay 3b is the GTP-Eu Binding Assay as described in Biological Example 3. EC50's were measured unless otherwise noted. […] In the table, “nt” means the Compound was not tested and “no” means the compound was tested but had no measurable activity under the assay conditions employed.
Target sequence in this assay (P21453 whole entry): as above
Target sequence in this assay (P32121 whole entry partner): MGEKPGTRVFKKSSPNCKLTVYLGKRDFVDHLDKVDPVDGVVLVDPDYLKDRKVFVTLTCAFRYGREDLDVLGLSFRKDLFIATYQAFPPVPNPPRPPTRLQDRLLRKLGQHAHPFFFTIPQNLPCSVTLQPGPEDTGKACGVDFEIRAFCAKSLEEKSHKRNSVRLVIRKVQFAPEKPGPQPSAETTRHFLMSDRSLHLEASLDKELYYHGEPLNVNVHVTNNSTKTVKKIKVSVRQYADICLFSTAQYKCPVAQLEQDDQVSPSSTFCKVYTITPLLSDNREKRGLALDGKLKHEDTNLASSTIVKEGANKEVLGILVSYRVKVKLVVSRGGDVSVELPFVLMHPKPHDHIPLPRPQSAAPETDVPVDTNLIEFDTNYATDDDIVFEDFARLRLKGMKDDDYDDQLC

[3] = Tango β-arrestin Recruitment Assay, read-out: Assay 2a EC50
[4] = Tango β-arrestin, footnote 1: Relative EC50 was measured, read-out: Assay 2a Relative EC50

Row | Structure (SMILES) | EC50 (S1P1 [1]) [nM] | EC50 (S1P1 [2]; [3]) [nM] | EC50 (S1P1 [2]; [4]) [nM]
1 | O=C(O)/C=C/c1ccc(-c2noc(-c3cn4cc(C(F)(F)F)cc(Cl)c4n3)n2)c(Cl)c1 [Entry 3] | ≤ 100 | 100 to 500 | –
2 | O=C(O)CCc1ccc(-c2noc(-c3cn4cc(C(F)(F)F)cc(Cl)c4n3)n2)c(F)c1 [Entry 19] | ≤ 100 | 100 to 500 | –
3 | NC(=O)CCc1ccc(-c2noc(-c3cn4cc(C(F)(F)F)cc(Cl)c4n3)n2)c(Cl)c1 [Entry 20] | ≤ 100 | ≤ 100 | –
4 | Cc1cc(Br)c2nc(-c3nc(-c4cc(F)c(CCC(=O)O)cc4Cl)no3)cn2c1 [Entry 25] | ≤ 100 | ≤ 100 | –
5 | Cc1cc(Cl)c2nc(-c3nc(-c4cc(F)c(CCC(=O)O)cc4Cl)no3)cn2c1 [Entry 28] | ≤ 100 | ≤ 100 | –
6 | O=C(O)CCc1cc(Cl)c(-c2noc(-c3cn4cc(I)ccc4n3)n2)cc1F [Entry 31] | ≤ 100 | ≤ 100 | –
7 | O=C(O)CCc1cc(Cl)c(-c2noc(-c3cn4cc([N+](=O)[O-])cc(Cl)c4n3)n2)cc1F [Entry 36] | ≤ 100 | 100 to 500 | –
8 | N#Cc1cc(Br)c2nc(-c3nc(-c4cc(F)c(CCC(=O)O)cc4Cl)no3)cn2c1 [Entry 47] | ≤ 100 | 100 to 500 | –
9 | O=C(O)C(O)COc1cc(Cl)c(-c2noc(-c3cn4cc(C(F)(F)F)cc(Cl)c4n3)n2)cc1Cl (stereo not shown) [Entry 58] | – | ≤ 100 | –
10 | O=C(O)CCc1cc(Cl)c(-c2noc(-c3cn4cc(Br)cc(Cl)c4n3)n2)cc1F [Entry 64] | ≤ 100 | ≤ 100 | –
11 | Cc1ccc(Oc2cc(Cl)c3nc(-c4nc(-c5cc(F)c(CCC(=O)O)cc5Cl)no4)cn3c2)cc1 [Entry 67] | – | ≤ 100 | –
12 | O=C(O)CCc1cc(Cl)c(-c2noc(-c3cn4cc(Br)cc(Br)c4n3)n2)cc1F [Entry 71] | – | ≤ 100 | –
13 | COCCOc1cc(Cl)c(-c2noc(-c3cn4cc(C(F)(F)F)cc(Cl)c4n3)n2)cc1Cl [Entry 76] | – | ≤ 100 | –
14 | O=C(O)CN1CCC(Oc2cc(Cl)c(-c3noc(-c4cn5cc(C(F)(F)F)cc(Cl)c5n4)n3)cc2F)C1 (stereo not shown) [Example 92, {3-[(5-chloro-4-{5-[8-chloro-6-(trifluoromethyl)imidazo[1,2-a]pyridin-2-yl]-1,2,4-oxadiazol-3-yl}-2-fluorophenyl)oxy]pyrrolidin-1-yl}acetic acid] | ≤ 100 | ≤ 100 | –
15 | O=C(O)[C@H]1C[C@H](Oc2ccc(-c3noc(-c4cn5cc(C(F)(F)F)cc(Cl)c5n4)n3)c(Cl)c2)CN1 [Example 97, (4S)-4-[(3-chloro-4-{5-[8-chloro-6-(trifluoromethyl)imidazo[1,2-a]pyridin-2-yl]-1,2,4-oxadiazol-3-yl}phenyl)oxy]-D-proline] | ≤ 100 | ≤ 100 | –
16 | Cc1cc(NS(C)(=O)=O)ccc1-c1noc(-c2cn3cc(C(F)(F)F)cc(Cl)c3n2)n1 [Example 98, N-(4-{5-[8-chloro-6-(trifluoromethyl)imidazo[1,2-a]pyridin-2-yl]-1,2,4-oxadiazol-3-yl}-3-methylphenyl)methanesulfonamide] | ≤ 100 | ≤ 100 | –
17 | CC(O)COc1c(Cl)cc(-c2noc(-c3cn4cc(C(F)(F)F)cc(Cl)c4n3)n2)cc1Cl (stereo not shown) [Example 104, 1-[(2,6-dichloro-4-{5-[8-chloro-6-(trifluoromethyl)imidazo[1,2-a]pyridin-2-yl]-1,2,4-oxadiazol-3-yl}phenyl)oxy]propan-2-ol] | – | ≤ 100 | –

Second part, the compound after the results:

Row | EC50 (S1P1 [1]) [nM] | EC50 (S1P1 [2]; [3]) [nM] | EC50 (S1P1 [2]; [4]) [nM] | Structure (SMILES)
18 | – | ≤ 100 | – | OC(CF)COc1cc(Cl)c(-c2noc(-c3cn4cc(C(F)(F)F)cc(Br)c4n3)n2)cc1Cl (stereo not shown) [Example 110, 1-[(4-{5-[8-bromo-6-(trifluoromethyl)imidazo[1,2-a]pyridin-2-yl]-1,2,4-oxadiazol-3-yl}-2,5-dichlorophenyl)oxy]-3-fluoropropan-2-ol]
19 | – | ≤ 100 | – | OCCNc1ccc(-c2noc(-c3cn4cc(C(F)(F)F)cc(Cl)c4n3)n2)c(Cl)c1 [Example 115, 2-[(3-chloro-4-{5-[8-chloro-6-(trifluoromethyl)imidazo[1,2-a]pyridin-2-yl]-1,2,4-oxadiazol-3-yl}phenyl)amino]ethanol]
20 | ≤ 100 | ≤ 100 | – | CS(=O)(=O)NCc1ccc(-c2noc(-c3cn4cc(C(F)(F)F)cc(Cl)c4n3)n2)c(Cl)c1 [Example 136, N-[(3-chloro-4-{5-[8-chloro-6-(trifluoromethyl)imidazo[1,2-a]pyridin-2-yl]-1,2,4-oxadiazol-3-yl}phenyl)methyl]methanesulfonamide]
21 | – | – | 100 to 500 | OCCNCc1cc(Cl)c(-c2noc(-c3cn4cc(C(F)(F)F)cc(Cl)c4n3)n2)cc1Cl [Example 138, 2-{[(2,5-dichloro-4-{5-[8-chloro-6-(trifluoromethyl)imidazo[1,2-a]pyridin-2-yl]-1,2,4-oxadiazol-3-yl}phenyl)methyl]amino}ethanol]
22 | 500 to 1000 | 100 to 500 | – | Fc1cccc(F)c1-c1noc(-c2cn3cc(C(F)(F)F)cc(Cl)c3n2)n1 [Example 141, 8-chloro-2-[3-(2,6-difluorophenyl)-1,2,4-oxadiazol-5-yl]-6-(trifluoromethyl)imidazo[1,2-a]pyridine]
23 | 100 to 500 | 500 to 1000 | – | Fc1ccccc1-c1noc(-c2cn3cc(C(F)(F)F)cc(Cl)c3n2)n1 [Example 142, 8-chloro-2-[3-(2-fluorophenyl)-1,2,4-oxadiazol-5-yl]-6-(trifluoromethyl)imidazo[1,2-a]pyridine]
24 | ≤ 100 | 100 to 500 | – | Cc1ccccc1-c1noc(-c2cn3cc(C(F)(F)F)cc(Cl)c3n2)n1 [Example 150, 8-chloro-2-[3-(2-methylphenyl)-1,2,4-oxadiazol-5-yl]-6-(trifluoromethyl)imidazo[1,2-a]pyridine]
25 | ≤ 100 | 100 to 500 | – | FC(F)(F)c1cc(Br)c2nc(-c3nc(-c4ccccc4Cl)no3)cn2c1 [Example 159, 8-bromo-2-[3-(2-chlorophenyl)-1,2,4-oxadiazol-5-yl]-6-(trifluoromethyl)imidazo[1,2-a]pyridine]
26 | ≤ 100 | 100 to 500 | – | Cc1cc(C#N)c2nc(-c3nc(-c4cc(F)c(CCC(=O)O)cc4Cl)no3)cn2c1 [Example 160, 3-{5-chloro-4-[5-(8-cyano-6-methylimidazo[1,2-a]pyridin-2-yl)-1,2,4-oxadiazol-3-yl]-2-fluorophenyl}propanoic acid]
27 | – | – | 100 to 500 | CC(Cc1cc(Cl)c(-c2noc(-c3cn4cc(C(F)(F)F)cc(Cl)c4n3)n2)cc1Cl)C(=O)O (stereo not shown) [Example 190, 3-(2,5-dichloro-4-{5-[8-chloro-6-(trifluoromethyl)imidazo[1,2-a]pyridin-2-yl]-1,2,4-oxadiazol-3-yl}phenyl)-2-methylpropanoic acid]
28 | – | – | 100 to 500 | CC(Cc1cc(Cl)c(-c2noc(-c3cn4cc(C(F)(F)F)cc(Br)c4n3)n2)cc1Cl)C(=O)O (stereo not shown) [Example 225, 3-(4-{5-[8-bromo-6-(trifluoromethyl)imidazo[1,2-a]pyridin-2-yl]-1,2,4-oxadiazol-3-yl}-2,5-dichlorophenyl)-2-methylpropanoic acid]
29 | – | ≤ 100 | – | CC(Cc1cc(Cl)c(-c2nc(-c3cn4cc(C(F)(F)F)cc(Cl)c4n3)no2)cc1Cl)C(=O)O (stereo not shown) [Example 241, 3-(2,5-dichloro-4-{3-[8-chloro-6-(trifluoromethyl)imidazo[1,2-a]pyridin-2-yl]-1,2,4-oxadiazol-5-yl}phenyl)-2-methylpropanoic acid]
30 | – | 100 to 500 | – | CC(=O)OCCOc1c(Cl)cc(-c2noc(-c3cn4cc(C(F)(F)F)cc(Cl)c4n3)n2)cc1Cl [Example 279, 2-[(2,6-dichloro-4-{5-[8-chloro-6-(trifluoromethyl)imidazo[1,2-a]pyridin-2-yl]-1,2,4-oxadiazol-3-yl}phenyl)oxy]ethyl acetate]
31 | – | ≤ 100 | – | OCCOc1c(Cl)cc(-c2noc(-c3cn4cc(C(F)(F)F)cc(Cl)c4n3)n2)cc1Cl [Example 280, 2-[(2,6-dichloro-4-{5-[8-chloro-6-(trifluoromethyl)imidazo[1,2-a]pyridin-2-yl]-1,2,4-oxadiazol-3-yl}phenyl)oxy]ethanol]
